Data from patent US20200223837A1, “BENZOFURAN AMIDES AND HETEROAROMATIC ANALOGUES THEREOF FOR USE IN THERAPY” (European Molecular Biology Laboratory, priority 2017, published 2020).

tested on: EGR1 promoter; assay: EGR1 reporter assay (luciferase) in genomically engineered HeLa cell line; assay type: cell-based; settings: Homo sapiens; EGR1 reporter HeLa cells, luciferase activity after 24 hours with compound
Source text: The compounds of the present invention can be characterized for their effect on expression of egr1 (early growth response protein 1) using an EGR1 reporter cell line.
The HeLa cell line was genetically modified to provide a simple, robust and highly reproducible cell-based assay reporting the activity of an endogenous EGR1 promoter. In brief, a construct encoding EGFP and luciferase proteins, separated by a self-cleaving P2A peptide was inserted, using CRISPR, immediately downstream (3′) to the promoter of endogenous EGR1. Upon treatment with compounds, cells express EGFP and luciferase from EGR1 promoter, which can be readily detected either in live cells using microscopy or cytometry, or through detection of luciferase activity in cell lysates.
To achieve stable genomic integration of an EGR1-promoter dual reporter, two plasmids were generated: one contained the reporter construct (eGFP-P2A-luciferase) flanked by homology arms that direct insertion into genomic DNA, by homologous recombination, of a break in genomic DNA generated by guide RNA targeted cleavage by Cas9 endonuclease. The gRNA expressing plasmid was based on px330 (56), into which a gRNA sequence that targets a break in gDNA close to the start codon of EGR1 was cloned. The left homology arm (encoding part of EGR1 promoter adjacent to its start codon) and right homology arm (encoding […] of start codon of EGR1) were cloned from gDNA using the following primers: […]
The present compounds can be tested, e.g. by using a HeLa cell line carrying an EGR1 reporter construct which allows for expression of luciferase and eGFP (enhanced GFP) controlled by the EGR1 promoter. For this reporter cells are seeded in the wells of a 384 well microtiter plate at a density of 2000 cells per well in 48 μl of DMEM supplemented with 4.5 g/l glucose, 2 mM glutamine and 10% FCS and are incubated for 24 hours at 37° C. with 5% CO2 and 95% humidity. Then, an eleven point 1:3 serial dilution of each test compound, from an initial concentration of 100 μM, is prepared in DMSO and the dilutions are added to the cells in a volume of 2 μl per well. The cells are incubated for a further 24 hours, after which the luciferase activity of each well is determined by addition of 25 μl of luciferase substrate reaction mixture (Britelite™ plus, Perkin Elmer) and measuring the bioluminescence light output (EnVision Xcite plate reader, PerkinElmer).
The compound of example 64 served as a positive control for this EGR1 reporter assay. The compound of example 64 had been identified in an initial high throughput screening campaign.

| EC50 | SMILES |
| --- | --- |
| 0.01 to 10 µM | CCc1ccc2c(CC(=O)Nc3ncc(C)s3)coc2c1 [Example 40, 2-(6-Ethylbenzofuran-3-yl)-N-(5-methylthiazol-2-yl)acetamide] |
| 0.01 to 10 µM | COc1ccc2nc(NC(=O)Cc3coc4cc(C)ccc34)sc2c1 [Example 41, N-(6-Methoxy-1,3-benzothiazol-2-yl)-2-(6-methylbenzofuran-3-yl)acetamide] |
| 0.01 to 10 µM | Cc1ccc2c(CC(=O)Nc3nccs3)coc2c1 [Example 42, 2-(6-Methylbenzofuran-3-yl)-N-thiazol-2-yl-acetamide] |
| 0.01 to 10 µM | COc1ccc2c(CC(=O)Nc3ncc(C)s3)coc2c1 [Example 43, 2-(6-Methoxybenzofuran-3-yl)-N-(5-methylthiazol-2-yl)acetamide] |
| 0.01 to 10 µM | O=C(CCc1coc2ccccc12)Nc1ncc(C(F)(F)F)s1 [Example 44, 3-(Benzofuran-3-yl)-N-[5-(trifluoromethyl)thiazol-2-yl]propanamide] |
| 0.01 to 10 µM | Cc1cnc(NC(=O)Cc2coc3cc(C)c(C)cc23)s1 [Example 45, 2-(5,6-Dimethylbenzofuran-3-yl)-N-(5-methylthiazol-2-yl)acetamide] |
| 0.01 to 10 µM | N#Cc1cnc(NC(=O)Cc2coc3cc(Cl)ccc23)s1 [Example 46, 2-(6-Chlorobenzofuran-3-yl)-N-(5-cyanothiazol-2-yl)acetamide] |
| 0.01 to 10 µM | COC(=O)c1cnc(NC(=O)Cc2coc3c(C)c(C)ccc23)s1 [Example 47, Methyl 2-[[2-(6,7-dimethylbenzofuran-3-yl)acetyl]amino]thiazole-5-carboxylate] |
| 0.01 to 10 µM | Cc1ccc2c(CC(=O)Nc3ncc(C)s3)coc2c1 [Example 48, 2-(6-Methylbenzofuran-3-yl)-N-(5-methylthiazol-2-yl)acetamide] |
| 0.01 to 10 µM | O=C(Cc1coc2c(Cl)c(Cl)ccc12)Nc1ncc(C(F)(F)F)[nH]1 [Example 49, 2-(6,7-Dichlorobenzofuran-3-yl)-N-[5-(trifluoromethyl)-1H-imidazol-2-yl]acetamide] |
| 0.01 to 10 µM | COc1ccc(-c2csc(NC(=O)Cc3coc4cc(C)ccc34)n2)cc1OC [Example 50, N-[4-(3,4-Dimethoxyphenyl)thiazol-2-yl]-2-(6-methylbenzofuran-3-yl)acetamide] |
| 0.01 to 10 µM | COc1ccc2c(CC(=O)Nc3nc(-c4ccc(CCC(C)NC(C)=O)cc4)cs3)coc2c1 (centres unmarked) [Example 51, N-[4-[4-(3-Acetamidobutyl)phenyl]thiazol-2-yl]-2-(6-methoxybenzofuran-3-yl)acetamide] |
| 0.01 to 10 µM | CCc1ccc2c(CC(=O)Nc3nc(-c4ccc(NC(C)=O)cc4)cs3)coc2c1 [Example 52, N-[4-(4-Acetamidophenyl)thiazol-2-yl]-2-(6-ethylbenzofuran-3-yl)acetamide] |
| 0.01 to 10 µM | O=C(Cc1coc2c(Cl)cccc12)Nc1ncc(C(F)(F)F)s1 [Example 53, 2-(7-Chlorobenzofuran-3-yl)-N-[5-(trifluoromethyl)thiazol-2-yl]acetamide] |
| 0.01 to 10 µM | COc1ccc2c(CC(=O)Nc3nc4c(s3)CCC4)coc2c1 [Example 54, N-(5,6-Dihydro-4H-cyclopenta[d]thiazol-2-yl)-2-(6-methoxybenzofuran-3-yl)acetamide] |
| 0.01 to 10 µM | Cc1ccc2c(CC(=O)Nc3ncc(C(F)(F)F)[nH]3)coc2c1C [Example 55, 2-(6,7-Dimethylbenzofuran-3-yl)-N-[5-(trifluoromethyl)-1H-imidazol-2-yl]acetamide] |
| 0.01 to 10 µM | COCc1cnc(NC(=O)Cc2coc3cc(Cl)ccc23)s1 [Example 56] |
| 0.01 to 10 µM | Cc1cnc(NC(=O)Cc2coc3c(Cl)c(C)ccc23)[nH]1 [Example 57, 2-(7-Chloro-6-methyl-benzofuran-3-yl)-N-(5-methyl-1H-imidazol-2-yl)acetamide] |
| 0.01 to 10 µM | Cc1ccc2c(CC(=O)Nc3ncc(C(F)(F)F)[nH]3)coc2c1Cl [Example 58, 2-(7-Chloro-6-methyl-benzofuran-3-yl)-N-[5-(trifluoromethyl)-1H-imidazol-2-yl]acetamide] |

| EC50 | SMILES |
| --- | --- |
| 0.01 to 10 µM | Cc1ccc2c(CC(=O)Nc3ncc(C#N)s3)coc2c1Cl [Example 59, 2-(7-Chloro-6-methyl-benzofuran-3-yl)-N-(5-cyano-1H-thiazol-2-yl)acetamide] |
| 0.01 to 10 µM | O=C(Cc1coc2cc(Cl)ccc12)Nc1ncc(C(F)(F)F)s1 [Example 60, 2-(6-Chlorobenzofuran-3-yl)-N-[5-(trifluoromethyl)thiazol-2-yl]acetamide] |
| 0.01 to 10 µM | Cc1ccc2c(CCC(=O)Nc3ncc(C(F)(F)F)s3)coc2c1C [Example 61, 3-(6,7-Dimethylbenzofuran-3-yl)-N-[5-(trifluoromethyl)thiazol-2-yl]propanamide] |
| 0.01 to 10 µM | Cc1ccc2c(CC(=O)Nc3ncc(C#N)s3)coc2c1C [Example 62, N-(5-Cyanothiazol-2-yl)-2-(6,7-dimethylbenzofuran-3-yl)acetamide] |
| 0.01 to 10 µM | O=C(Cc1coc2cc3c(cc12)CCC3)Nc1ncc(C(F)(F)F)s1 [Example 63, 2-(6,7-Dihydro-5H-cyclopenta[f]benzofuran-3-yl)-N-[5-(trifluoromethyl)thiazol-2-yl]acetamide] |
| 0.01 to 10 µM | COCc1cnc(NC(=O)Cc2coc3cc4c(cc23)CCC4)s1 [Example 65, 2-(6,7-Dihydro-5H-cyclopenta[f]benzofuran-3-yl)-N-[5-(methoxymethyl)thiazol-2-yl]acetamide] |
| 0.01 to 10 µM | CC(C(=O)Nc1ncc(C(F)(F)F)s1)c1coc2cc(Cl)ccc12 (centres unmarked) [Example 66, 2-(6-Chlorobenzofuran-3-yl)-N-[5-(trifluoromethyl)thiazol-2-yl]propanamide] |
| 0.01 to 10 µM | COc1ccc(-c2csc(NC(=O)Cc3coc4cc(C)ccc34)n2)cc1Cl [Example 67, N-[4-(3-Chloro-4-methoxy-phenyl)thiazol-2-yl]-2-(6-methylbenzofuran-3-yl)acetamide] |
| 0.01 to 10 µM | COc1ccc2c(CC(=O)N(c3ccc(C(C)=O)cc3)c3nc4ccccc4s3)coc2c1 [Example 68, N-(4-Acetylphenyl)-N-(1,3-benzothiazol-2-yl)-2-(6-methoxybenzofuran-3-yl)acetamide] |
| 0.01 to 10 µM | CCc1ccc2c(CC(=O)N(c3ccc(C(C)=O)cc3)c3nc4ccccc4s3)coc2c1 [Example 69, N-(4-Acetylphenyl)-N-(1,3-benzothiazol-2-yl)-2-(6-ethylbenzofuran-3-yl)acetamide] |
| 0.01 to 10 µM | C=CCN(C(=O)Cc1coc2cc(C)ccc12)c1nc(-c2ccc(S(C)(=O)=O)cc2)cs1 [Example 70, N-Allyl-2-(6-methylbenzofuran-3-yl)-N-[4-(4-methylsulfonylphenyl)thiazol-2-yl]acetamide] |
| 0.01 to 10 µM | COc1ccc(-c2csc(NC(=O)Cc3coc4cc(OC)ccc34)n2)cc1 [Example 71, 2-(6-Methoxybenzofuran-3-yl)-N-[4-(4-methoxyphenyl)thiazol-2-yl]acetamide] |
| 0.01 to 10 µM | N#Cc1cnc(NC(=O)Cc2coc3c(Cl)c(Cl)ccc23)s1 [Example 73, N-(5-Cyanothiazol-2-yl)-2-(6,7-dichlorobenzofuran-3-yl)acetamide] |
| 0.01 to 10 µM | COc1ccc2c(CC(=O)Nc3nc(-c4ccc5c(c4)CCO5)cs3)coc2c1 [Example 74, N-[4-(2,3-Dihydrobenzofuran-5-yl)thiazol-2-yl]-2-(6-methoxybenzofuran-3-yl)acetamide] |
| 0.01 to 10 µM | Cc1cnc(NC(=O)Cc2coc3c(Cl)c(Cl)ccc23)s1 [Example 75, 2-(6,7-Dichlorobenzofuran-3-yl)-N-(5-methylthiazol-2-yl)acetamide] |
| 0.01 to 10 µM | COc1ccc2c(CC(=O)Nc3nc(-c4ccc(C5CCCCC5)cc4)cs3)coc2c1 [Example 76, N-[4-(4-Cyclohexylphenyl)thiazol-2-yl]-2-(6-methoxybenzofuran-3-yl)acetamide] |
| 0.01 to 10 µM | COc1ccc2c(CC(=O)N(c3ccc(SC(F)F)cc3)c3nc4ccccc4s3)coc2c1 [Example 77, N-(1,3-Benzothiazol-2-yl)-N-[4-(difluoromethylsulfanyl)phenyl]-2-(6-methoxybenzofuran-3-yl)acetamide] |
| 0.01 to 10 µM | COc1ccc2c(CC(=O)Nc3nc(-c4ccc5c(c4)OCO5)cs3)coc2c1 [Example 78, N-[4-(1,3-Benzodioxol-5-yl)thiazol-2-yl]-2-(6-methoxybenzofuran-3-yl)acetamide] |
| 0.01 to 10 µM | COc1ccc2c(CC(=O)Nc3ncc(C)s3)coc2c1C [Example 79, 2-(6-Methoxy-7-methyl-benzofuran-3-yl)-N-(5-methylthiazol-2-yl)acetamide] |
